In patent US6903183B1, “Compositions and methods for regulation of steroidogenesis” (Texas Tech University Health Services Center, priority 1996, dated 2005):
“Also recorded” adds a separate entry of the source. No end group written: not given here.

Key:
[1] = test system: bovine zona glomerulosa cells; assay: Cholesterol content of submitochondrial fractions (cholesterol oxidase assay); assay type: cell-based
Procedure: (§1) Freshly-prepared bovine zona glomerulosa cells were stimulated with Ang II (10 nM) or submitted to a cytosolic Ca^2+ clamp (600 nM) for 2 h. Mitochondria were isolated and subfractionated into outer membranes (OM), inner membranes (IM) and contact sites (CS). Cholesterol content was determined by the cholesterol oxidase assay.
as §1, with “gomerulosa” for “glomerulosa”, “h, as described in Example 9.” for “h.”, “assay, also as described in Example 9.” for “assay.”

StAR protein [2] = assay: Western blot of StAR protein in mitochondria of glomerulosa cells; assay type: cell-based, bovine
StAR protein [3] = assay: Immunoblot of StAR protein expression in H295R cells; assay type: cell-based, human; conditions: for amount of StAR protein: treatment of H295R cells with agonist
Procedure: (§2) FIG. 4. Effect of KN93 on agonist-stimulated aldosterone production and StAR protein expression in H295R cells. […] The medium aldosterone content was determined by R.I.A. and normalized to the tissue culture well protein content. Data points represent the mean ±SE of values from six separate culture wells expressed as fold increase over basal. Significant inhibition relative to the control response is indicated at *p<0.01. StAR protein was examined using equivalent amounts of total cellular lysate (30 μg) by immunoblot analysis as described in the Methods. Results are representative of those obtained from three separate experiments.
For each treatment, cells were solubilized as described above and an equivalent amount of protein (30 μg) for each sample were separated by SDS-PAGE (12.5%) and then electrophoretically transferred to polyvinylidene difluoride membrane as previously described (Clark et al (1994) J. Biol. Chem., 269:2831-322, reference specifically incorporated herein by reference). Immunoblot analysis was as described (Id) using a rabbit sera containing the specific StAR antipeptide antibody (see ANTIBODIES infra) as the primary label and a donkey anti-rabbit IgG conjugated with horseradish peroxidase (Amersham, Arlington Heights, Ill.). The specific signal was detected by chemiluminescence assays using the Renaissance kit from DuPont NEN (Boston, Mass.) and the StAR specific bands were quantitated by BioImage Visage 2000 computer-assisted image analysis (BioImage, Ann Arbor, Mich.). Different exposure times were used to insure linearity.

H295R cells = assay: Agonist-stimulated aldosterone production (steroidogenesis) in H295R cells; assay type: cell-based, human
Procedure: as §2
The human adrenocortical carcinoma-derived cell line (H295R) was used. This cell line secretes multiple steroids, including aldosterone and cortisol. […]
Subcultured cells were maintained 24 hours in DME/F12 medium containing 0.2% calf serum, 0.01% BSA and antibiotics (low serum). […] The aldosterone and cortisol contents of medium recovered from each well were determined with aldosterone and cortisol standards prepared in low-serum medium by commercial aldosterone and cortisol radioimmunoassays (Diagnostic System Laboratories; Webster, Tex.). Results of aldosterone and cortisol assays were normalized to cellular protein per well, expressed as pmol per mg cell protein and transformed to percentage of the control response where indicated. […]

StAR protein [4] = assay: Synthesis of StAR protein in MA-10 cells after CRH, dbcAMP or hCG; assay type: cell-based, mouse; conditions: for time of maximal response following stimulation: CRH at 1 μM
StAR protein [5] = assay: Immunoblot analysis of 30 kDa (StAR) protein in MA-10 cells; assay type: cell-based, mouse
Procedure: Immunoblot Analysis. Mitochondria were isolated from either MA-10 or COS 1 cells transfected with either pCMV or pCMV+30 kDa cDNA 48 hours post-transfection. For experiments in which progesterone production was measured (as described above), cells were solubilized directly in the well with 0.1% SDS, the cell homogenates were collected and combined from all 8 wells, and the protein was precipitated using trichloracetic acid. The protein was solubilized in sample buffer (25 mM Tris/Cl, pH 6.8, 1% SDS, 5% β-mercaptoethanol, 1 mM EDTA, 4% glycerol, and 0.01% bromophenol blue) and loaded onto a 12.5% SDS-PAGE minigel (Mini-Protein II System, Bio-Rad, Richmond, Calif.). […] The membrane was washed as before, and the specific signal was detected by chemiluminescence using the Renaissance kit from Du Pont-NEN.
In order to verify that the cDNA was being expressed in eukaryotic cells, COS 1 cells were used to transfect the pCMV+30 kDa cDNA since the pCMV plasmid can be replicated in these cells and approximately 80% of the cells are transfected with plasmid DNA based on the expression of reporter protein. Forty-eight hours post-transfection, mitochondria were isolated and the 30 kDa protein expression was determined by immunoblot analysis. […] In addition, a 36.5 kDa protein was detected in the COS 1 cells which would be consistent with the precursor protein. […]

StAR mRNA = assay: Northern blot analysis of StAR mRNA in MA-10 cells; assay type: cell-based, mouse
Procedure: MA-10 cells were stimulated with Bt2cAMP and StAR mRNA levels were determined by Northern blot analysis. Within 1 hour of Bt2cAMP stimulation, two major transcripts of approximately 3400 nt and 1600 nt, and one minor transcript of 2700 nt, were detected. […] Subsequent to the marked mRNA induction, the greatest induction (10x) in StAR protein was detected after 4 hours of Bt2cAMP stimulation by immunoblot analysis. Comparatively lower levels of StAR could be detected after 1 hour of hormone stimulation with maximal levels accumulated within 8 hours.

[6] = test system: mitochondria isolated from MA-10 mouse Leydig tumor cells; assay: In vitro reconstituted system: pregnenolone synthesis by isolated mitochondria; assay type: biochemical; conditions: protein added to isolated mitochondria
Excerpt: Rat heart mitochondria were used for the import assay with bovine StAR, indicating import of StAR is not dependent upon factors specific to mitochondria isolated from steroidogenic tissues. The ability of StAR to increase steroid production has also been confirmed in an in vitro reconstituted system.

Y-1 adrenal tumor cells = assay: Overexpression of DAX-1 in Y-1 adrenal tumor cells; assay type: cell-based, mouse
[7] = target: protein complex purified from MA-10 cell mitochondrial membranes; assay: competition against 35S-labeled StAR signal peptide on liposomes carrying the complex, gel filtration

Q: Which results are given for “[Val^5]-Angiotensin II acetate (DRVYVHPF; also: acetate salt; UniProt P01019 25-32, looked up, variant I5V) [Ang II]”?
A: OM cholesterol ([1]; Ang II 10 nM, 2 h): No significant changes; cholesterol in contact sites (CS) ([1]; Ang II 10 nM, 2 h, n=3): 172±28 % of controls; StAR protein (StAR protein [2]; Ang II stimulated glomerulosa cells, n=2): 157 % of controls; StAR in IM (StAR protein [2]; Ang II stimulation): increased; amount of StAR protein (StAR protein [3]): increased; also recorded: elevated

Q: With `[Ca+2]` [Ca^2+] as the molecule, how does the “cholesterol content of OM” value ([1]; cytosolic Ca2+ clamp 600 nM, 2 h, n=5) read?
A: 54±24 % of controls

Q: What about the “StAR protein in mitochondrial extracts” value (StAR protein [2]; Ca2+ stimulation, cycloheximide-sensitive, n=5) of the same molecule?
A: 141±14 % of controls

Q: With `COC(=O)C1=C(C)NC(C)=C([N+](=O)[O-])C1c1ccccc1C(F)(F)F` (stereo not drawn) [Bay K, (=)-Bay K 8644] as the molecule, how does the “amount of StAR protein” value (StAR protein [3]) read?
A: increased; also recorded: elevated

Q: For `[Cl-].[K+]` [K^+, potassium chloride], which “amount of StAR protein” value (StAR protein [3]) is on record?
A: increased; also recorded: elevated

Q: For `COc1ccc(S(=O)(=O)N(CCO)c2ccccc2CN(C)CC=Cc2ccc(Cl)cc2)cc1` [KN93, 2-[N-(2-hydroxyethyl)-N-(4-methoxybenzenesulfonyl)]amino-N-(4-chlorocinnamyl)-N-methylbenzylamine], which aldosterone production (H295R cells; KN93 3 μM) is on record?
A: potently inhibited

Q: And the block of steroidogenesis (H295R cells; KN93 between 1 and 3 μM)?
A: 60 to 80%

Q: And the “induction of StAR protein by Ang II, K+, or Bay K” value (StAR protein [3]; KN93 between 1 and 3 μM)?
A: did not affect

Q: What about the “agonist-induction of StAR protein expression” value (StAR protein [3]; co-treatment with KN93 3 μM) of the same molecule?
A: not affected

Q: How did the “concentration of maximal response (StAR synthesis)” value (StAR protein [4]) turn out when “CRH: Corticotropin-Releasing Hormone (SEEPPISLDLTFHLLREVLEMARAEQLAQQAHSNRKLMEII; ends and bridges not checked; UniProt P06850 154-194, looked up)” was run?
A: 1 µM

Q: What about the “synthesis of the StAR protein” value (StAR protein [4]) of the same molecule?
A: dose-dependent increase

Q: What about the “time of maximal response following stimulation” value (StAR protein [4]) of the same molecule?
A: 4 h

Q: What about the “level of StAR synthesis versus maximal doses of CRH or hCG alone” value (StAR protein [4]; in the presence of hCG) of the same molecule?
A: higher level

Q: How did the “time to maximal accumulated StAR protein levels” value (StAR protein [5]) turn out when `CCCC(=O)Nc1ncnc2c1ncn2[C@@H]1O[C@@H]2COP(=O)(O)O[C@H]2[C@H]1OC(=O)CCC` [Bt2cAMP, N^6, 2′-O-dibutyryladenosine-3′:5′-cyclic monophosphate] was run?
A: ≤ 8 h

Q: What about the StAR protein induction (StAR protein [5]; after 4 hours of stimulation) of the same molecule?
A: 10 x

Q: What about the “time to maximal StAR mRNA levels” value (StAR mRNA) of the same molecule?
A: 6 h

Q: What about the “StAR mRNA induction” value (StAR mRNA; after 2 hours of stimulation) of the same molecule?
A: 20 x

Q: And the “concentration of maximal response (StAR synthesis)” value (StAR protein [4])?
A: 1 µM

Q: What about the “synthesis of the StAR protein” value (StAR protein [4]) of the same molecule?
A: dose-dependent increase

Q: What about the “time of maximal response following stimulation” value (StAR protein [4]) of the same molecule?
A: 6 h

Q: `C[C@@H]1C[C@@H]([C@H](O)CC2CC(=O)NC(=O)C2)C(=O)[C@@H](C)C1` [Cycloheximide] was tested. Which “Ca2+-activated cholesterol transfer to IM” value [1] did it give?
A: significantly reduced

Q: And the “effect on Ang II increase of StAR in IM” value (StAR protein [2])?
A: prevented

B1: adrenodoxin: another mitochondrial imported protein (protein, UniProt P10109 61-184, looked up)
Adrenodoxin, mitochondrial: SSSEDKITVHFINRDGETLTTKGKVGDSLLDVVVENNLDIDGFGACEGTLACSTCHLIFEDHIYEKLDAITDEENDMLDLAYGLTDRSRLGCQICLTKSMDNMTVRVPETVADARQSIDVGKTS
Q: For B1, which pregnenolone synthesis [6] is on record?
A: not affected

B2: DAX-1: transcription repressor, unusual member of the nuclear hormone receptor superfamily, overexpressed in Y-1 cells (protein, UniProt Q61066 1-472, looked up)
Nuclear receptor subfamily 0 …: MAGEDHPWQGSILYNLLMSAKQKHASQEEREVRLGAQCWGCACGAQPVLGGERLSGGQARSLLYRCCFCGENHPRQGGILYSMLTNARQPSVATQAPRARFGAPCWGCACGSAEPLVGREGLPAGQAPSLLYRCCFCGEEHPRQGSILYSLLTSAQQTHVSREAPEAHRRGEWWQLSYCTQSVGGPEGLQSTQAMAFLYRSYVCGEEQPQQISVASGTPVSADQTPATPQEQPRAPWWDASPGVQRLITLKDPQVVCEAASAGLLKTLRFVKYLPCFQILPLDQQLVLVRSCWAPLLMLELAQDHLHFEMMEIPETNTTQEMLTTRRQETEGPEPAEPQATEQPQMVSAEAGHLLPAAAVQAIKSFFFKCWSLNIDTKEYAYLKGTVLFNPDLPGLQCVKYIEGLQWRTQQILTEHIRMMQREYQIRSAELNSALFLLRFINSDVVTELFFRPIIGAVSMDDMMLEMLCAKL
Q: B2 was tested. Which “StAR mRNA and protein synthesis” value (Y-1 adrenal tumor cells) did it give?
A: inhibition

Q: What about the steroid synthesis (Y-1 adrenal tumor cells) of the same molecule?
A: complete inhibition

B3: StAR signal peptide (unlabeled, commercially synthesized) (peptide)
peptide: MFLATFKLCAGSSYRHMRNMKGLRHQ
Q: B3 was tested. Which reduction of total radioactivity in the liposome fraction [7] did it give?
A: 65%
